The values that follow come from patent US20170226072A1, “1,4-Disubstituted Piperidines, 1,4-Disubstituted Piperazines, 1,4-Disubstituted Diazepines, and 1,3-Disubstituted Pyrrolidine Compounds” (University of Kentucky Research Foundation, priority 2013, published 2017).

In one data set the target is T1, hERG channel (Homo sapiens, UniProt Q12809).
T1 construct: expressed in transfected cells
The data set can be described thus: [3H]Dofetilide binding assay, HEK-293 cell membrane preparation. The note with it: HEK-293 cell membranes expressing hERG, 5 nM [3H]dofetilide; read-out: hERG [3H]Dofetilide Binding Inhibition Mean ± SEM (IC50). As to the method: [^3H]Dofetilide Binding Assay, HEK-293 Cell Membrane Preparation
[^3H]Dofetilide binding assays were conducted using commercially available HEK-293 cell membranes which stably express the hERG channel. Membranes were suspended in assay buffer (50 mM Tris, 10 mM KCl, 1 mM MgCl2, pH 7.4) prior to the experiment. Assays were performed in duplicate in a total volume of 250 μL. Aliquots of the HEK-293 cell membrane suspension which contained 5 μg membrane protein were added to tubes containing assay buffer, 5 nM [^3H]dofetilide and a range of concentrations of analog (10 nM-100 μM). Nonspecific binding was determined in the presence of amitriptyline (1 mM). Samples were incubated for 1 hr. at 24° C., followed by rapid filtration. Radioactivity retained by the filters was determined by liquid scintillation spectrometry as described above for the [^3H]DA uptake assay. The affinity for the [^3H]dofetilide binding site on the hERG channel expressed in the HEK-293 cellular membrane was determined from the analog concentration response curves.
In general terms: The hERG channel carries a current that helps repolarise heart muscle cells.

The target in data set [1] is T2, dopamine transporter (DAT) (Rattus norvegicus, UniProt P23977).
T2 construct: from tissue; host or cells: rat striatum, synaptosomes
The experiment in a line: [3H]DA uptake assay, striatal synaptosomal preparation. The class given is biochemical. The conditions noted are these: rat striatal synaptosomes; read-out: DAT [3H]DA Uptake Inhibition Mean ± SEM (Ki). As to the method:
(§1) [^3H]DA and [^3H]5-HT Uptake Assay, Synaptosomal Preparation
(§2) [^3H]DA and [^3H]5-HT uptake into striatal synaptosomes was determined to evaluate compound inhibition of the dopamine transporter (DAT) and the serotonin transporter (SERT), respectively. […] Homogenates were centrifuged at 2000 g for 10 min at 4° C., and resulting supernatants were centrifuged at 20,000 g for 17 min at 4° C. […] Assays were performed in duplicate in a total volume of 500 (for DAT assays) or 250 μL (for SERT assays). […] Reactions were terminated by addition of 3 mL of ice-cold assay buffer and subsequent filtration and radioactivity retained by the filters was determined by liquid scintillation spectrometry (Tri-Carb 2100TR liquid scintillation analyzer; PerkinElmer Life and Analytical Sciences, Boston, Mass.).

In data set [2] the target is T3, serotonin transporter (SERT) (Rattus norvegicus, UniProt P31652).
T3 construct: from tissue
The experiment in a line: [3H]5-HT uptake assay, striatal synaptosomal preparation. In kind it is biochemical. The note with it: rat striatal synaptosomes, GBR-12935 (100 nM) in buffer; read-out: SERT [3H]5-HT Uptake Inhibition Mean ± SEM (Ki). As to the method:
as §1, §2

Data set [3] deals with T4, VMAT2 (Rattus norvegicus, UniProt Q01827).
T4 construct: conducted using isolated synaptic vesicle preparations; from tissue; host or cells: rat striatum, isolated synaptic vesicles
The data set can be described thus: [3H]Dihydrotetrabenazine ([3H]DTBZ) binding assay, vesicular preparation. The conditions noted are these: rat brain synaptic vesicles, 3 nM [3H]DTBZ; read-out: Inhibition of [3H]DTBZ binding (Ki) VMAT2.
Method: [^3H]Dihydrotetrabenazine ([^3H]DTBZ) Binding Assay, Vesicular Preparation
The resulting supernatant (S1) was then centrifuged at 22,000 g for 10 min at 4° C. The synaptosomal pellets (P2) were homogenized in 18 mL of ice-cold Milli-Q water and exposed for 5 min for lysing synaptosomes. Osmolarity was restored by addition of 2 mL of 25 mM HEPES with 100 mM dipotassium tartrate (pH 7.5). Samples were centrifuged at 20,000 g for 20 min at 4° C. to remove lysed synaptosomal membranes. MgSO4 (1 mM) was added to the supernatant (S3), and was centrifuged at 100,000 g for 45 min at 4° C. […] Aliquot parts (100 μL) of suspension of vesicle membrane protein were incubated in assay buffer (25 mM HEPES, 100 mM dipotassium tartrate, 5 mM MgSO4, 0.1 mM EDTA and 0.05 mM EGTA, pH 7.5, at 25° C.) in the presence of 3 nM [^3H]DTBZ and at least 7 concentrations (1 nM-1 mM) of compound for 1 hr at room temperature. Nonspecific binding was determined in the presence of 20 μM tetrabenazine, a standard compound. Assays were performed in duplicate using a 96-well plate format. Reactions were terminated by filtration of samples on a Unifilter-96 GF/B filter plates (presoaked in 0.5% polyethylenimine), using a FilterMate harvester (Packard BioScience Co., Meriden, Conn.).
After washing 5 times with 350 μL of the ice-cold wash buffer (25 mM HEPES, 100 mM dipotassium tartrate, 5 mM MgSO4 and 10 mM NaCl, pH 7.5), filter plates were dried, sealed and each well filled with 40 μL Packard's MicroScint 20 cocktail. Bound [^3H]DTBZ was measured using a Packard TopCount NXT scintillation counter with a Packard Windows NT based operating system.

Data set [4] has as its target T4, VMAT2. The experiment in a line: [3H]Dopamine ([3H]DA) uptake assay, vesicular preparation. In kind it is biochemical.
Method: [^3H]Dopamine ([^3H]DA) Uptake Assay, Vesicular Preparation
Homogenates were centrifuged (2,000 g for 10 min at 4° C.), and then the supernatants were centrifuged (10,000 g for 30 min at 4° C.). Pellets were resuspended in 2 ml of 0.32 M sucrose solution and subjected to osmotic shock by adding 7 ml of ice-cold MilliQ water to the preparation. After 1 min, osmolarity was restored by adding 900 μl of 0.25 M HEPES buffer and 900 μl of 1.0 M potassium tartrate solution. Samples were centrifuged (20,000 g for 20 min at 4° C.), and the supernatants were centrifuged (55,000 g for 1 hr at 4° C.), followed by addition of 100 μl of 10 mM MgSO4, 100 μl of 0.25 M HEPES and 100 μl of 1.0 M potassium tartrate solution prior to the final centrifugation (100,000 g for 45 min at 4° C.). Final pellets were resuspended in 2.4 ml of assay buffer (25 mM HEPES, 100 mM potassium tartrate, 50 μM EGTA, 100 μM EDTA, 1.7 mM ascorbic acid, 2 mM ATP-Mg^2+, pH 7.4). Aliquots of the vesicular suspension (100 μl) were added to tubes containing assay buffer, various concentrations of compound (0.1 nM-10 mM) and 0.1 μM [^3H]DA in a final volume of 500 and incubated at 37° C. for 8 min. […] Reactions were terminated by filtration, and radioactivity retained by the filters was determined by liquid scintillation spectrometry (Tri-Carb 2100TR liquid scintillation analyzer; PerkinElmer Life and Analytical Sciences, Boston, Mass.).
The subject of data set [5] is VMAT2 over hERG, DAT and SERT. The experiment in a line: Lead compound criteria: 30-fold selectivity for VMAT2 over hERG, DAT and SERT. The conditions noted are these: criterion: 30-fold selectivity for VMAT2 over hERG.
From the text: Accordingly, this test assessed the potential of the tested compounds to produce cardiac arrhythmias via interaction at this off-target site. The criterion for compounds to be considered leads was a 30-fold selectivity for VMAT2 over hERG.
Where [6] appears, read: rat striatal synaptic vesicles, 0.1 μM [3H]DA, read-out: [3H]DA Uptake (Ki) VMAT2.
The mark [7] stands for this setting: synaptic vesicle preparations, summary of Table 1, read-out: inhibition of [3H]DA uptake, Ki.

Broadly, the IC50 is the point on the concentration scale where inhibition reaches its midpoint. As a reminder, the Ki is a measure of affinity in units of concentration, obtained from inhibition or displacement.

T4 sequence (Q01827 whole entry): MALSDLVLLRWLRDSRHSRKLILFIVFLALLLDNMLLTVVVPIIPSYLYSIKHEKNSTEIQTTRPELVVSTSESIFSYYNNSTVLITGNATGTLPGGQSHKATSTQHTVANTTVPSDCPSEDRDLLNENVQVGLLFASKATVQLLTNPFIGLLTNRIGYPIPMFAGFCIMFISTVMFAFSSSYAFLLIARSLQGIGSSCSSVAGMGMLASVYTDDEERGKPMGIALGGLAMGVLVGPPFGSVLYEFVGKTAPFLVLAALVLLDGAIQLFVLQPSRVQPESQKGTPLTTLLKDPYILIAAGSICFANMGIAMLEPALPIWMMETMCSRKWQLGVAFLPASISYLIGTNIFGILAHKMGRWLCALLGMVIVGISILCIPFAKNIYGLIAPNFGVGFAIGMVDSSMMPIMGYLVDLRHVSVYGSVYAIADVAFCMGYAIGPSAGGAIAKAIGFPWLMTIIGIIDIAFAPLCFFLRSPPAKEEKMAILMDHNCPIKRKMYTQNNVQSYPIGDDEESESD
T1 sequence (Q12809 whole entry): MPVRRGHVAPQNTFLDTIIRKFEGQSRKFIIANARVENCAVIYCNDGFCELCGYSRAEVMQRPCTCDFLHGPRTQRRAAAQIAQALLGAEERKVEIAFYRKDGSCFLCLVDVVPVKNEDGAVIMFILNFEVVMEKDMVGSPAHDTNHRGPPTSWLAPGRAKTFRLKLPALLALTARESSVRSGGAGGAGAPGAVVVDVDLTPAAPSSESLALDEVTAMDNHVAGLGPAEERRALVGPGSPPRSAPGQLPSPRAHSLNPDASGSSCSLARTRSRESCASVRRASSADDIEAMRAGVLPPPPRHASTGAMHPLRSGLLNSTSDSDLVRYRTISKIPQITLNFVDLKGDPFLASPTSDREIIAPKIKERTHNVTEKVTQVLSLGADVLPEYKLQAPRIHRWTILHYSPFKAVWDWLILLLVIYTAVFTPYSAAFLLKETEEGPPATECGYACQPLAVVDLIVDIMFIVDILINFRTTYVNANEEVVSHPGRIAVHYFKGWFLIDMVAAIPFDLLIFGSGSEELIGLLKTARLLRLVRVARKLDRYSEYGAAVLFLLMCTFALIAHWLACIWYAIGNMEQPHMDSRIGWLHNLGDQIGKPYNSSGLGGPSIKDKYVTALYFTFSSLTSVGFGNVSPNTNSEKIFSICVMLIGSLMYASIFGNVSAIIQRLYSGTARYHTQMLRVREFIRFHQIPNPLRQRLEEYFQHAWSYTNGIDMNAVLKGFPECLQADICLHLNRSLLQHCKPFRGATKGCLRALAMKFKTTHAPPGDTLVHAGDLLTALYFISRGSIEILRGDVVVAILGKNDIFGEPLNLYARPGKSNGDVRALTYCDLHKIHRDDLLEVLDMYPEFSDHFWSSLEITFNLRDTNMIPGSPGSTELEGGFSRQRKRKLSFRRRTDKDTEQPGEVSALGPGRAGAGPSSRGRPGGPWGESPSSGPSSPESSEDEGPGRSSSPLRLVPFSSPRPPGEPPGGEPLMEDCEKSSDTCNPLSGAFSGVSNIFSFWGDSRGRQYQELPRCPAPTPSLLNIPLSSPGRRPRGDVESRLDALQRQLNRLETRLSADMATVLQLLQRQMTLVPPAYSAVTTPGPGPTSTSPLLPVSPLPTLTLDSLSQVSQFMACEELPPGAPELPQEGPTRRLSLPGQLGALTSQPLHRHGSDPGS
T2 sequence (P23977 whole entry): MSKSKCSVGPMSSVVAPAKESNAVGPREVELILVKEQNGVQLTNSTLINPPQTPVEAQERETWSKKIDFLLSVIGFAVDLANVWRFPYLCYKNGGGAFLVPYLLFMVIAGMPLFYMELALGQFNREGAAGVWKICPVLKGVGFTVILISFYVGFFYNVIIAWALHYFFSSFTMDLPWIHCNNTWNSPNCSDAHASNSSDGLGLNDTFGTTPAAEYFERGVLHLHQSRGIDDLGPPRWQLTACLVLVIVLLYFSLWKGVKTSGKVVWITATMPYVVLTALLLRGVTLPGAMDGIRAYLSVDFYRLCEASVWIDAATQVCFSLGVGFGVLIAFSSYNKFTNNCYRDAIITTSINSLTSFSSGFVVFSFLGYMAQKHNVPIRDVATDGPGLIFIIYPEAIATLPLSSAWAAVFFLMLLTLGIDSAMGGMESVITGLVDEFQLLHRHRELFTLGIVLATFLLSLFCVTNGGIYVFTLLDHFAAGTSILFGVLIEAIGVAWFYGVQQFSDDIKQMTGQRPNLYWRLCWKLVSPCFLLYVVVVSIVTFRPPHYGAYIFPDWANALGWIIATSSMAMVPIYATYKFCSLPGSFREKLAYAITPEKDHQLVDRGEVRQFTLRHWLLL
T3 sequence (P31652 whole entry): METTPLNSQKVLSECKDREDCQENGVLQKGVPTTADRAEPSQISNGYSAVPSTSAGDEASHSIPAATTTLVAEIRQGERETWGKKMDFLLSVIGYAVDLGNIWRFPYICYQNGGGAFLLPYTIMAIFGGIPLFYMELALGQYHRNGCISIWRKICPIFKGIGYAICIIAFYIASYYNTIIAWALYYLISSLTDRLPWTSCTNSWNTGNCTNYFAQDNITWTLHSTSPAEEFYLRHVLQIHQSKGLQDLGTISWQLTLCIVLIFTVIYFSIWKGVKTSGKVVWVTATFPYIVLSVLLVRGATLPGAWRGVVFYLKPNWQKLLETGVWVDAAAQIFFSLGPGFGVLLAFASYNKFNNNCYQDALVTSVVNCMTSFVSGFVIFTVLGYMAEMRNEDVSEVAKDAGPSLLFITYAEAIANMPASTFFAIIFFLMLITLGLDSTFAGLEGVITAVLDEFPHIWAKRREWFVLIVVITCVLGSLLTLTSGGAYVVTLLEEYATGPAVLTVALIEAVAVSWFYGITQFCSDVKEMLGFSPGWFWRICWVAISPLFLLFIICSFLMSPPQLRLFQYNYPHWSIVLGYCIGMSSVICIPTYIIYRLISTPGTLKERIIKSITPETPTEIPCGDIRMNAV

`COc1ccccc1CCN1CCN(CCc2ccccc2OC)CC1` [Compound 55]: the IC50 on hERG channel amounted to 1020 ± 180 nM. The Ki was 14400 ± 456 nM in data set [1] and 1580 ± 415 nM in data set [2].
As for `COc1ccc(CCC2CCN(CCc3ccc(F)cc3)CC2)c(F)c1` [Compound 41], on hERG channel, the IC50 came to 3600 ± 1220 nM. Moreover, the Ki is 3480 ± 415 nM in data set [1], 600 ± 75 nM at VMAT2 [3] and 60 ± 8.2 nM on VMAT2 [4] (setting [6]).
Take `COc1ccccc1CCC1CCN(CCc2ccccc2OC)CC1` [Compound 12, 1,4-bis(2-methoxyphenethyl)piperidine]: the “lead compound status (30-fold selectivity for VMAT2 over hERG, DAT and SERT)” value in data set [5] is “successfully met the criteria for lead compound status”. Further, the IC50 at hERG channel turned out to be 1070 ± 90.6 nM. In addition, the Ki in data set [1] is 3450 ± 450 nM; on VMAT2 [3], 190 ± 8.8 nM; in data set [2], 120 ± 10 nM; on VMAT2 [4] (setting [6]), 9.3 ± 0.6 nM; on VMAT2 [4] (setting [7]), 9 to 20 nM.
Consider `COc1cccc(CCN2CCN(CCc3cccc(OC)c3)CC2)c1` [Compound 56], for which the IC50 on hERG channel turned out to be 1490 ± 204 nM. Also, the inhibition constant Ki in data set [1] was 7900 ± 2890 nM; in data set [2], 3620 ± 1300 nM.
Take `Fc1ccc(CCN2CCN(CCc3ccc(F)cc3)CC2)cc1` [Compound 59]: the IC50 on hERG channel turned out to be 362 ± 15.5 nM. In addition, the Ki was 6580 ± 1410 nM in data set [1], 3710 ± 480 nM on VMAT2 [3], 4950 ± 900 nM in data set [2] and 58 ± 12 nM at VMAT2 [4] (setting [6]).
For `COc1ccccc1CCC1CCN(CCc2ccccc2Cl)CC1` [Compound 28, 1-(2-chlorophenethyl)-4-(2-methoxyphenethyl)piperidine], the 50% inhibitory concentration (IC50) on hERG channel was 1190 ± 181 nM. Further, the Ki in data set [1] is 1250 ± 307 nM; on VMAT2 [3], 190 ± 20 nM; at VMAT2 [4] (setting [6]) it was 20 ± 3 nM; on VMAT2 [4] (setting [7]), 9 to 20 nM.
On to `COc1cccc(CCN2CCC(CCc3ccc(OC)cc3F)CC2)c1` [Compound 38, 4-(2-fluoro-4-methoxyphenethyl)-1-(3-methoxyphenethyl)piperidine], for which the IC50 at hERG channel is 479 ± 64.3 nM. Further, the inhibition constant (Ki) in data set [1] came to 2940 ± 270 nM; on VMAT2 [3], 190 ± 9 nM; at VMAT2 [4] (setting [6]) it was 83 ± 3.8 nM.
With `COc1ccccc1CCC1CCN(CCc2ccccc2)CC1` [Compound 13], the “lead compound status (30-fold selectivity for VMAT2 over hERG, DAT and SERT)” value in data set [5] was “successfully met the criteria for lead compound status”. The IC50 at hERG channel is 1650 ± 670 nM. For the same compound, the Ki in data set [1] amounted to 3560 ± 1210 nM; on VMAT2 [3], 690 ± 50 nM; in data set [2] it was 750 ± 180 nM; on VMAT2 [4] (setting [6]), 22 ± 2.8 nM.
With `COc1ccccc1CCC1CCN(CCc2ccc(F)cc2)CC1` [Compound 29, 1-(4-fluorophenethyl)-4-(2-methoxyphenethyl)piperidine], on hERG channel, the half-maximal inhibitory concentration (IC50) was found to be 347 ± 18.8 nM. The Ki is 4130 ± 440 nM in data set [1]; 400 ± 97 nM on VMAT2 [3]; 580 ± 70 nM in data set [2]; 13 ± 2.1 nM on VMAT2 [4] (setting [6]); 9 to 20 nM at VMAT2 [4] (setting [7]).
Take `COc1cccc(CCN2CCC(CCc3ccccc3)CC2)c1` [Compound 2]: the IC50 at hERG channel was determined as 489 ± 84.7 nM. Also, the Ki is 3130 ± 190 nM in data set [1], 265 ± 38 nM at VMAT2 [3], 1150 ± 90 nM in data set [2] and 22 ± 0.87 nM at VMAT2 [4] (setting [6]).
Take `Clc1ccccc1CCN1CCN(CCc2ccccc2)CC1` [Compound 63]: the IC50 on hERG channel was found to be 2840 ± 287 nM. For the same compound, the values for the Ki (in data set [1]; at VMAT2 [3]; at VMAT2 [4] (setting [6])) were 10400 ± 1850 nM, 1590 ± 260 nM and 63 ± 6.9 nM, respectively.
On to `Clc1ccccc1CCN1CCN(CCc2ccccc2Cl)CC1` [Compound 58], for which the concentration for half-maximal inhibition (IC50) at hERG channel was found to be 1080 ± 175 nM. For the same compound, the Ki in data set [1] was 6310 ± 1010 nM; in data set [2], 3340 ± 1530 nM.
For `COc1cccc(CCN2CCN(CCc3ccccc3)CC2)c1` [Compound 61], in data set [5], the “lead compound status (30-fold selectivity for VMAT2 over hERG, DAT and SERT)” value is listed as “successfully met the criteria for lead compound status”. The IC50 on hERG channel stood at 4230 ± 860 nM. In addition, the Ki in data set [1] stood at 17200 ± 4520 nM; at VMAT2 [3] it was 1300 ± 330 nM; in data set [2] it was 6920 ± 1350 nM; at VMAT2 [4] (setting [6]), 98 ± 16 nM.
On to `COc1ccccc1CCN1CCN(CCc2ccccc2)CC1` [Compound 60], for which, on hERG channel, the IC50 was determined as 3190 ± 327 nM. Also, the inhibition constant (Ki) in data set [1] worked out at 12800 ± 4460 nM; in data set [2] it was 2580 ± 415 nM.
For the compound `COc1ccc(CCN2CCN(CCc3ccccc3)CC2)cc1` [Compound 62], the “lead compound status (30-fold selectivity for VMAT2 over hERG, DAT and SERT)” value in data set [5] is given as “successfully met the criteria for lead compound status”. The IC50 at hERG channel came out at 9190 ± 375 nM. The Ki in data set [1] was determined as 11600 ± 3080 nM; on VMAT2 [3], 4630 ± 1310 nM; in data set [2], 3720 ± 20 nM; on VMAT2 [4] (setting [6]) it was 100 ± 11 nM.
As for `COc1cccc(CCN2CCC(CCc3cc(F)cc(F)c3)CC2)c1` [Compound 44], on hERG channel, the IC50 is 477 ± 42.9 nM. Further, the figures for the Ki (in data set [1]; on VMAT2 [3]; at VMAT2 [4] (setting [6])) were 1910 ± 568 nM, 250 ± 3 nM and 28 ± 2.7 nM, respectively.
Regarding `COc1ccc(CCC2CCN(CCc3ccccc3Cl)CC2)cc1` [Compound 24], the “lead compound status (30-fold selectivity for VMAT2 over hERG, DAT and SERT)” value in data set [5] is recorded as “successfully met the criteria for lead compound status”. Also, at hERG channel, the IC50 amounted to 2090 ± 391 nM. The inhibition constant Ki was determined as 5160 ± 1250 nM in data set [1], 230 ± 20 nM at VMAT2 [3], 4150 ± 1450 nM in data set [2] and 40 ± 7 nM on VMAT2 [4] (setting [6]).
With `COc1cc(OC)c(OC)cc1CCC1CCN(CCc2ccccc2)CC1` [Compound 9], at hERG channel, the IC50 amounted to 8100 ± 585 nM. Moreover, the Ki in data set [1] is 5460 ± 120 nM; at VMAT2 [3], 380 ± 49 nM; at VMAT2 [4] (setting [6]), 94 ± 9.6 nM.
For the compound `c1ccc(CCN2CCN(CCc3ccccc3)CC2)cc1` [Compound 54, 1,4-diphenethylpiperazine], the IC50 on hERG channel worked out at 3390 ± 1940 nM. Also, the Ki in data set [1] was determined as 13600 ± 2690 nM; on VMAT2 [3], 3050 ± 640 nM; in data set [2] it was 11400 ± 4140 nM; at VMAT2 [4] (setting [6]), 110 ± 12 nM.
For `Fc1ccc(CCN2CCN(CCc3ccccc3)CC2)cc1` [Compound 64], in that order: 2290 ± 475 nM, 8040 ± 2570 nM, 3860 ± 1010 nM, 4460 ± 727 nM and 88 ± 6.9 nM.
